The experiment concerns mouse T lymphocytes. The experiment can be described thus: T-cell proliferation assay (ionomycin plus PMA induced T-cell stimulation, tritiated thymidine uptake). It is filed as cell-based, C57B1/6 mice. The note with it: T-lymphocyte, 10 ng/ml, standard. The method, then:
The principle of this assay is to measure the proliferation of mouse T lymphocytes stimulated with the combination of ionomycin plus PMA. A positive sample in this assay will inhibit T-cell proliferation, as indicated by reduced tritiated thymidine uptake.
Cells were pelleted by centrifugation at 1500 rpm for 8 minutes. Contaminating red cells were removed by treating the pellet with ammonium chloride lysing buffer (GIBCO) for 2 minutes at 4°C. Cold medium was added and cells were again centrifuged at 1500 rpm for 8 minutes. T lymphocytes were then isolated by separation of the cell suspension on nylon wool columns as follows: Nylon wool columns were prepared by packing approximately 4 grams of washed and dried nylon wool into 20 ml plastic syringes. The columns were sterilized by autoclaving at 250°F for 30 minutes. […]
The cell suspension was immediately distributed into 96 well flat-bottom microculture plates (Costar) at 200 µl/well. […] The proliferation of T lymphocytes was assessed by measurement of tritiated thymidine incorporation. […] Radioactivity of filter discs corresponding to individual wells was measured by standard liquid scintillation counting methods (Betacounter). Mean counts per minute of replicate wells were calculated and the results expressed as percent inhibition of tritiated thymidine uptake (proliferation) as follows: [formula]

These results are taken from EP0396400A1, “Microbial transformation product” (Merck & Co., Inc., priority 1989, dated 1990).

As usually defined, the inhibition is the change of the read-out against control, counted positive when it falls. For the compound `C=CC[C@@H]1/C=C(\C)C[C@H](C)C[C@H](OC)[C@H]2O[C@@](O)(C(=O)C(=O)N3CCCC[C@H]3C(=O)O[C@H](/C(C)=C/[C@@H]3CC[C@@H](O)[C@H](OC)C3)[C@H](C)[C@@H](O)CC1=O)[C@H](C)C[C@@H]2OC` [L-679,934], the inhibition at 0.01 µg/mL came out at 99%.
